In brackets after ≈: the same amount, converted by molar mass. Like-named read-outs stand apart in the source and are kept apart here.
Columns and labels:
E. coli ATCC 25922 = experiment: microbe, parasite or virus in culture
Outline: (§1)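 Values come from CLSI-guided (M07, M100) broth microdilution in CAMHB. Endpoint: lowest concentration halting growth, judged by naked eye or by OD600 plateau.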

A. baumannii = experiment: microbe, parasite or virus in culture
Outline: as §1

Q: What does the source list for CN1C(=O)[C@H](CCCCN)NC(=O)[C@H](CCCN)NCc2cccnc2Sc2c(Cl)ccc(Cl)c2CNC(=O)[C@@H]1Cc1c[nH]c2ccccc12 [RO7075573]?
A: MIC (E. coli ATCC 25922; CAMHB, mode of at least three replicates (RO7036668 one replicate)): >64 µg/mL; MIC (E. coli ATCC 25922; Escherichia coli, ATCC25922): > 64 µg/mL; MIC 100% (E. coli ATCC 25922; Study LGC281440): >64 µg/mL; MIC 100% (E. coli ATCC 25922; Study LGC282160): >64 µg/mL; MIC 100% (E. coli ATCC 25922; Study LGC284879): >64 µg/mL; MIC 100% (E. coli ATCC 25922; Study LGC285582): >64 µg/mL; MIC 100% (E. coli ATCC 25922; Study LGC286210): >64 µg/mL; MIC 100% (E. coli ATCC 25922; Study LGC293598): >64 µg/mL; MIC 100% (E. coli ATCC 25922; Study LGC294355): >64 µg/mL; MIC 100% (E. coli ATCC 25922; Study LGC295147): >64 µg/mL; MIC 100% (E. coli ATCC 25922; Study LGC296813): >64 µg/mL; MIC 100% (E. coli ATCC 25922; Study LGC299544): >64 µg/mL; MIC 100% (E. coli ATCC 25922; Study LGC301026): >64 µg/mL; MIC 100% (E. coli ATCC 25922; Study LGC308175): >64 µg/mL; MIC 100% (E. coli ATCC 25922; Study ROC010): >64 µg/mL; MIC 100% (E. coli ATCC 25922; Study ROC012): >64 µg/mL; MIC 80% (A. baumannii; ATCC 17978, Study LGC301026): 0.12 µg/mL (≈ 0.162 µM); MIC 100% (A. baumannii; ATCC 17978, Study LGC301026): 0.12 µg/mL (≈ 0.162 µM); MIC 80% (A. baumannii; ATCC 17978, Study LGC308175): ≤0.06 µg/mL; MIC 100% (A. baumannii; ATCC 17978, Study LGC308175): ≤0.06 µg/mL; MIC 80% (A. baumannii; ATCC 19606, Study LGC281440): 0.12 µg/mL (≈ 0.162 µM); MIC 100% (A. baumannii; ATCC 19606, Study LGC281440): 0.12 µg/mL (≈ 0.162 µM); MIC 80% (A. baumannii; ATCC 19606, Study LGC282160): 0.25 µg/mL (≈ 0.338 µM); MIC 100% (A. baumannii; ATCC 19606, Study LGC282160): 0.25 µg/mL (≈ 0.338 µM); MIC 80% (A. baumannii; ATCC 19606, Study LGC284879): 0.25 µg/mL (≈ 0.338 µM); MIC 100% (A. baumannii; ATCC 19606, Study LGC284879): 0.25 µg/mL (≈ 0.338 µM); MIC 80% (A. baumannii; ATCC 19606, Study LGC285582): 0.12 µg/mL (≈ 0.162 µM); MIC 100% (A. baumannii; ATCC 19606, Study LGC285582): 0.25 µg/mL (≈ 0.338 µM); MIC 80% (A. baumannii; ATCC 19606, Study LGC286210): 0.12 µg/mL (≈ 0.162 µM); MIC 100% (A. baumannii; ATCC 19606, Study LGC286210): 0.12 µg/mL (≈ 0.162 µM); MIC 80% (A. baumannii; ATCC 19606, Study LGC293598): 0.12 µg/mL (≈ 0.162 µM); MIC 100% (A. baumannii; ATCC 19606, Study LGC293598): 0.25 µg/mL (≈ 0.338 µM); MIC 80% (A. baumannii; ATCC 19606, Study LGC294355): 0.12 µg/mL (≈ 0.162 µM); MIC 100% (A. baumannii; ATCC 19606, Study LGC294355): 0.12 µg/mL (≈ 0.162 µM); MIC 80% (A. baumannii; ATCC 19606, Study LGC295147): 0.25 µg/mL (≈ 0.338 µM); MIC 100% (A. baumannii; ATCC 19606, Study LGC295147): 0.25 µg/mL (≈ 0.338 µM); MIC 80% (A. baumannii; ATCC 19606, Study LGC296813): 0.12 µg/mL (≈ 0.162 µM); MIC 100% (A. baumannii; ATCC 19606, Study LGC296813): 0.25 µg/mL (≈ 0.338 µM); MIC 80% (A. baumannii; ATCC 19606, Study LGC299544): 0.12 µg/mL (≈ 0.162 µM); MIC 100% (A. baumannii; ATCC 19606, Study LGC299544): 0.12 µg/mL (≈ 0.162 µM); MIC 80% (A. baumannii; ATCC 19606, Study LGC301026): 0.12 µg/mL (≈ 0.162 µM); MIC 100% (A. baumannii; ATCC 19606, Study LGC301026): 0.25 µg/mL (≈ 0.338 µM); MIC 80% (A. baumannii; ATCC 19606, Study LGC308175): 0.12 µg/mL (≈ 0.162 µM); MIC 100% (A. baumannii; ATCC 19606, Study LGC308175): 0.12 µg/mL (≈ 0.162 µM); MIC 80% (A. baumannii; ATCC 19606, Study ROC010): 0.25 µg/mL (≈ 0.338 µM); MIC 100% (A. baumannii; ATCC 19606, Study ROC010): 0.5 µg/mL (≈ 0.676 µM); MIC 80% (A. baumannii; ATCC 19606, Study ROC012): 0.12 µg/mL (≈ 0.162 µM); MIC 100% (A. baumannii; ATCC 19606, Study ROC012): 0.25 µg/mL (≈ 0.338 µM); MIC90 (A. baumannii; Acinetobacter baumannii, 10 MDR isolates, CAMHB, MCPs read at 80% growth inhibition): 0.5 µg/mL (≈ 0.676 µM); MIC (A. baumannii; Acinetobacter baumannii, ATCC17978, ATCC 17978, CAMHB, MCPs read at 80% inhibition): 0.12 µg/mL (≈ 0.162 µM); MIC (A. baumannii; Acinetobacter baumannii, ATCC17978, ATCC 17978, CAMHB, one replicate, MCPs read at 80% growth inhibition): ≤ 0.06 µg/mL; MIC (A. baumannii; Acinetobacter baumannii, ATCC19606, ATCC 19606, CAMHB, MCPs read at 80% growth inhibition): 0.12 µg/mL (≈ 0.162 µM); MIC (A. baumannii; Acinetobacter baumannii, ATCC19606, ATCC 19606, CAMHB, MCPs read at 80% inhibition): 0.12 µg/mL (≈ 0.162 µM); MIC (A. baumannii; Acinetobacter baumannii, ROB08701, CAMHB, MCPs read at 80% inhibition): 0.12 µg/mL (≈ 0.162 µM); MIC (A. baumannii; Acinetobacter baumannii, ROB08702, CAMHB, MCPs read at 80% inhibition): 0.12 µg/mL (≈ 0.162 µM); MIC (A. baumannii; Acinetobacter baumannii, ROB08703, CAMHB, MCPs read at 80% inhibition): 0.25 µg/mL (≈ 0.338 µM); MIC (A. baumannii; Acinetobacter baumannii, ROB08704, CAMHB, MCPs read at 80% inhibition): 0.5 µg/mL (≈ 0.676 µM); MIC (A. baumannii; Acinetobacter baumannii, ROB08705, CAMHB, MCPs read at 80% inhibition): ≤ 0.06 µg/mL; MIC (A. baumannii; Acinetobacter baumannii, ROB08706, CAMHB, MCPs read at 80% inhibition): 0.5 µg/mL (≈ 0.676 µM); MIC (A. baumannii; Acinetobacter baumannii, ROB08707, CAMHB, MCPs read at 80% inhibition): 0.12 µg/mL (≈ 0.162 µM); MIC (A. baumannii; Acinetobacter baumannii, ROB08708, CAMHB, MCPs read at 80% inhibition): 0.12 µg/mL (≈ 0.162 µM); MIC (A. baumannii; Acinetobacter baumannii, ROB08709, CAMHB, MCPs read at 80% inhibition): 0.12 µg/mL (≈ 0.162 µM); MIC (A. baumannii; Acinetobacter baumannii, ROB08710, CAMHB, MCPs read at 80% inhibition): 0.12 µg/mL (≈ 0.162 µM); MIC (A. baumannii; Acinetobacter baumannii, read-out: MIC read at 80% growth inhibition, CAMHB): 2 µg/mL (≈ 2.7 µM); MIC (A. baumannii; Acinetobacter baumannii, read-out: MIC read at 100% growth inhibition, CAMHB): > 64 µg/mL; MIC 80% (A. baumannii; ROB08701, Study LGC281440): 0.12 µg/mL (≈ 0.162 µM); MIC 100% (A. baumannii; ROB08701, Study LGC281440): 0.25 µg/mL (≈ 0.338 µM); MIC 80% (A. baumannii; ROB08701, Study LGC282160): 0.12 µg/mL (≈ 0.162 µM); MIC 100% (A. baumannii; ROB08701, Study LGC282160): 1 µg/mL (≈ 1.35 µM); MIC 80% (A. baumannii; ROB08701, Study LGC284879): 0.25 µg/mL (≈ 0.338 µM); MIC 100% (A. baumannii; ROB08701, Study LGC284879): 0.5 µg/mL (≈ 0.676 µM); MIC 80% (A. baumannii; ROB08701, Study LGC285582): 0.12 µg/mL (≈ 0.162 µM); MIC 100% (A. baumannii; ROB08701, Study LGC285582): 64 µg/mL (≈ 86.5 µM); MIC 80% (A. baumannii; ROB08701, Study LGC286210): 0.12 µg/mL (≈ 0.162 µM); MIC 100% (A. baumannii; ROB08701, Study LGC286210): 64 µg/mL (≈ 86.5 µM); MIC 80% (A. baumannii; ROB08701, Study LGC293598): 0.12 µg/mL (≈ 0.162 µM); MIC 100% (A. baumannii; ROB08701, Study LGC293598): 0.25 µg/mL (≈ 0.338 µM); MIC 80% (A. baumannii; ROB08701, Study LGC294355): 0.12 µg/mL (≈ 0.162 µM); MIC 100% (A. baumannii; ROB08701, Study LGC294355): 0.25 µg/mL (≈ 0.338 µM); MIC 80% (A. baumannii; ROB08701, Study LGC295147): 0.12 µg/mL (≈ 0.162 µM); MIC 100% (A. baumannii; ROB08701, Study LGC295147): 0.12 µg/mL (≈ 0.162 µM); MIC 80% (A. baumannii; ROB08701, Study LGC296813): 0.12 µg/mL (≈ 0.162 µM); MIC 100% (A. baumannii; ROB08701, Study LGC296813): 0.25 µg/mL (≈ 0.338 µM); MIC 80% (A. baumannii; ROB08701, Study LGC299544): 0.12 µg/mL (≈ 0.162 µM); MIC 100% (A. baumannii; ROB08701, Study LGC299544): 64 µg/mL (≈ 86.5 µM); MIC 80% (A. baumannii; ROB08701, Study LGC301026): 0.5 µg/mL (≈ 0.676 µM)

Source: paper PMC10794144, “A novel antibiotic class targeting the lipopolysaccharide transporter” (Nature, 2024)
